From patent publication US20250215029A1 (Recludix Pharma, Inc., priority 2022, published 2025)

Tests used:
[1] = target: T1, Recombinant STAT3 protein (STAT3 (G127-I722)) (Homo sapiens, UniProt P40763); experiment: STAT3 Fluorescence Polarization (FP) Assay; format: binding; details: STAT3 (G127-I722) 25 nM, probe 5-FAM-GpYLPQTV-NH2 2 nM, 45-minute incubation; read-out: STAT3 (FP assay IC50 class)
T1 construct: Recombinant STAT3 protein (STAT3 (G127-I722))
Summary of the method: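 Read-out is fluorescence polarization (mP) after 45 min at room temperature, with IC50 fitted by nonlinear regression against log compound concentration. Mixture: 25 nM STAT3 (G127-I722), 2 nM 5-FAM-GpYLPQTV-NH2 phosphopeptide, 10 mM HEPES pH 7.4 buffer, 1% DMSO.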

[2] = target: T2, Recombinant STAT6 protein (STAT6 (W123-T658)) (Homo sapiens, UniProt P42226); experiment: STAT6 Fluorescence Polarization (FP) Assay; format: binding; details: STAT6 (W123-T658) 250 nM, probe 5-FAM-Ap[…]-NH2 2 nM, 45-minute incubation; read-out: STAT6 (FP assay IC50 class)
T2 construct: Recombinant STAT6 protein (STAT6 (W123-T658))
T2 sequence (P42226 123-658): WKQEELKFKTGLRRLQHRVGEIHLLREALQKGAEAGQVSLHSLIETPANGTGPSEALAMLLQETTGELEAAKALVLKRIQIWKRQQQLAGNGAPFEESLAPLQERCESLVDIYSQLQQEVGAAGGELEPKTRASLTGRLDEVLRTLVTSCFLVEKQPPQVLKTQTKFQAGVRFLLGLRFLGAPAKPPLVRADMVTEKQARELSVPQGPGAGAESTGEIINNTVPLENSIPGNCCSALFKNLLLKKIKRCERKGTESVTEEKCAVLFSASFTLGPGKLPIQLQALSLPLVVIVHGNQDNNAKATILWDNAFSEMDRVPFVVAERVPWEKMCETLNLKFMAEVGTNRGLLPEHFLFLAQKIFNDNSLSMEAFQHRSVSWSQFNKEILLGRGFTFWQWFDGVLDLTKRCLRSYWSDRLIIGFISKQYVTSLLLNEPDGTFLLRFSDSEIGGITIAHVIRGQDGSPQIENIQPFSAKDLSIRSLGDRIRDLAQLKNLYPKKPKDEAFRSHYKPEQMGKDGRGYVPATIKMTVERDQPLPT
Summary of the method: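 STAT6 (W123-T658) at 250 nM was mixed with 2 nM 5-FAM-labeled phosphotyrosine peptide probe in HEPES pH 7.4 buffer with NaCl, EDTA, Tween 20 and DTT, then added to serially diluted compounds at 1% DMSO final. Polarization was read after 45 min at room temperature; IC50 came from nonlinear regression of mP versus log concentration.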

T1 sequence (P40763 127-722): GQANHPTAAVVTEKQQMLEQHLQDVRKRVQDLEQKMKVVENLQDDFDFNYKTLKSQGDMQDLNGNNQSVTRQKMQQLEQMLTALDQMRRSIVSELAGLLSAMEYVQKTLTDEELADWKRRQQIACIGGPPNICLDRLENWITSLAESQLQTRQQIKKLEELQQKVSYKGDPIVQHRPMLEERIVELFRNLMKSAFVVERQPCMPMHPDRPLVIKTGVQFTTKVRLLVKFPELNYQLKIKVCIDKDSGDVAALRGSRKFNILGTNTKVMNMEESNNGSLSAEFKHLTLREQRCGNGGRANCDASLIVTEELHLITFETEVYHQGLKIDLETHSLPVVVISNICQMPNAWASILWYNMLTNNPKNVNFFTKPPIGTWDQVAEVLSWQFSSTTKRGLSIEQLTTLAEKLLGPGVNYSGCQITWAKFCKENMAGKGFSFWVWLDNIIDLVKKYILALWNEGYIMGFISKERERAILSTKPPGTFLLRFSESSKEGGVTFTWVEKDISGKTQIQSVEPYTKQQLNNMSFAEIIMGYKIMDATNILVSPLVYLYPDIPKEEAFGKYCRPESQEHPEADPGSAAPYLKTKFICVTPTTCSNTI

Molecule `Cn1c(C2CN(C(=O)[C@@H]3CC[C@@H]4CCCC[C@H](NC(=O)c5cc6cc(CP(=O)(O)O)ccc6s5)C(=O)N43)C2)nc2ccccc21` [Compound 662, ((2-(((3S,6S,10aS)-3-(3-(1-methyl-1H-benzo[d]imidazol-2-yl)azetidine-1-carbonyl)-5-oxodecahydropyrrolo [1,2-a]azocin-6-yl)carbamoyl)benzo [b]thiophen-5-yl)methyl) phosphonic acid] has an IC50 [1] of 1 to 10 µM and an IC50 [2] of 3 to 30 µM.
`O=C(N[C@H]1CCCC[C@H]2CC[C@@H](C(=O)N3CC(c4cccnc4)C3)N2C1=O)c1cc2cc(CP(=O)(O)O)ccc2s1` [Compound 663, ((2-(((3S,6S,10aS)-5-oxo-3-(3-(pyridin-3-yl)azetidine-1-carbonyl)decahydropyrrolo[1,2-a]azocin-6-yl)carbamoyl)benzo [b]thiophen-5-yl)methyl) phosphonic acid] gave an IC50 [1] of 0.1 to 1 µM and an IC50 [2] of 3 to 30 µM.
With `O=C(N[C@H]1CCC[C@H]2CC[C@@H](C(=O)N3CC(c4cnccc4F)C3)N2C1=O)c1cc2cc(C(F)P(=O)(O)O)ccc2s1` (stereo partly drawn) [Compound 664, (fluoro(2-(((3S,6S,9aS)-3-(3-(4-fluoropyridin-3-yl)azetidine-1-carbonyl)-5-oxooctahydro-1H-pyrrolo[1,2-a]azepin-6-yl)carbamoyl)benzo [b]thiophen-5-yl)methyl) phosphonic acid] the IC50 [1] was less than 0.1 µM and the IC50 [2] was 0.3 to 3 µM.
For `O=C(N[C@H]1CCC[C@H]2CC[C@@H](C(=O)N3CC(c4cnccc4N4CC[C@H](F)C4)C3)N2C1=O)c1cc2cc(CP(=O)(O)O)ccc2s1` [Compound 666, ((2-(((3S,6S,9aS)-3-(3-(4-((S)-3-fluoropyrrolidin-1-yl)pyridin-3-yl)azetidine-1-carbonyl)-5-oxooctahydro-1H-pyrrolo[1,2-a]azepin-6-yl)carbamoyl)benzo [b]thiophen-5-yl)methyl) phosphonic acid], the IC50 [1] was less than 0.1 µM and the IC50 [2] was 3 to 30 µM.
With `O=C(N[C@H]1CCC[C@H]2CC[C@@H](C(=O)N3CC(c4cnccc4N4CC[C@@H]4C(F)F)C3)N2C1=O)c1cc2cc(CP(=O)(O)O)ccc2s1` [Compound 668, ((2-(((3S,6S,9aS)-3-(3-(4-((R)-2-(difluoromethyl)azetidin-1-yl)pyridin-3-yl)azetidine-1-carbonyl)-5-oxooctahydro-1H-pyrrolo[1,2-a]azepin-6-yl)carbamoyl)benzo [b]thiophen-5-yl)methyl) phosphonic acid] the IC50 [1] was less than 0.1 µM and the IC50 [2] was 3 to 30 µM.
Work on `O=C(N[C@H]1CCC[C@H]2CC[C@@H](C(=O)N3CC(c4ccccc4N4CCOCC4)C3)N2C1=O)c1cc2cc(C(F)P(=O)(O)O)ccc2s1` (stereo partly drawn) [Compound 670, (fluoro(2-(((3S,6S,9aS)-3-(3-(2-morpholinophenyl)azetidine-1-carbonyl)-5-oxooctahydro-1H-pyrrolo[1,2-a]azepin-6-yl)carbamoyl)benzo [b]thiophen-5-yl)methyl) phosphonic acid] yielded an IC50 [1] of 0.1 to 1 µM and an IC50 [2] of 3 to 30 µM.
Work on `O=C(N[C@H]1CCC[C@H]2CC[C@@H](C(=O)N3CC(c4cnccc4N4C5COCC4C5)C3)N2C1=O)c1cc2cc(C(F)P(=O)(O)O)ccc2s1` (stereo partly drawn) [Compound 671, ((2-(((3S,6S,9aS)-3-(3-(4-(3-oxa-6-azabicyclo[3.1.1]heptan-6-yl)pyridin-3-yl)azetidine-1-carbonyl)-5-oxooctahydro-1H-pyrrolo[1,2-a]azepin-6-yl)carbamoyl)benzo [b]thiophen-5-yl)fluoromethyl) phosphonic acid] yielded an IC50 [1] of less than 0.1 µM and an IC50 [2] of 0.3 to 3 µM.
Molecule `O=C(N[C@H]1CCC[C@H]2CC[C@@H](C(=O)N3CC(C4=CCCOC4)C3)N2C1=O)c1cc2cc(CP(=O)(O)O)ccc2s1` [Compound 672, ((2-(((3S,6S,9aS)-3-(3-(5,6-dihydro-2H-pyran-3-yl)azetidine-1-carbonyl)-5-oxooctahydro-1H-pyrrolo[1,2-a]azepin-6-yl)carbamoyl)benzo [b]thiophen-5-yl)methyl) phosphonic acid] has an IC50 [1] of 1 to 10 µM and an IC50 [2] of 3 to 30 µM.
`Cc1nnc([C@H]2[C@H](c3ccccc3)CN2C(=O)[C@@H]2CC[C@@H]3CCC[C@H](NC(=O)c4cc5cc(C(F)P(=O)(O)O)ccc5s4)C(=O)N32)o1` (stereo partly drawn) [Compound 673] gave an IC50 [1] of 0.1 to 1 µM and an IC50 [2] of 3 to 30 µM.
`COC[C@@H]1CCN1c1ncncc1C1CN(C(=O)[C@@H]2CC[C@@H]3CCC[C@H](NC(=O)c4cc5cc(CP(=O)(O)O)ccc5s4)C(=O)N32)C1` [Compound 675, ((2-(((3S,6S,9aS)-3-(3-(4-((S)-2-(methoxymethyl)azetidin-1-yl)pyrimidin-5-yl)azetidine-1-carbonyl)-5-oxooctahydro-1H-pyrrolo[1,2-a]azepin-6-yl)carbamoyl)benzo [b]thiophen-5-yl)methyl) phosphonic acid] showed an IC50 [1] of less than 0.1 µM and an IC50 [2] of 3 to 30 µM.
With `C[C@H]1C[C@H]2CC[C@@H](C(=O)N3CC(c4cncnc4N4CCC4)C3)N2C(=O)[C@@H](NC(=O)c2cc3cc(CP(=O)(O)O)ccc3s2)C1` [Compound 678, ((2-(((3S,6S,8R,9aR)-3-(3-(4-(azetidin-1-yl)pyrimidin-5-yl)azetidine-1-carbonyl)-8-methyl-5-oxooctahydro-1H-pyrrolo[1,2-a]azepin-6-yl)carbamoyl)benzo [b]thiophen-5-yl)methyl) phosphonic acid] the IC50 [1] was less than 0.1 µM and the IC50 [2] was 3 to 30 µM.
Work on `C[C@H]1COCCN1c1ccncc1C1CN(C(=O)[C@@H]2CC[C@@H]3CCC[C@H](NC(=O)c4cc5cc(CP(=O)(O)O)ccc5s4)C(=O)N32)C1` [Compound 679, ((2-(((3S,6S,9aS)-3-(3-(4-((S)-3-methylmorpholino)pyridin-3-yl)azetidine-1-carbonyl)-5-oxooctahydro-1H-pyrrolo[1,2-a]azepin-6-yl)carbamoyl)benzo [b]thiophen-5-yl)methyl) phosphonic acid] yielded an IC50 [1] of less than 0.1 µM and an IC50 [2] of 3 to 30 µM.
In the case of `N#CC1CN(c2ccncc2C2CN(C(=O)[C@@H]3CC[C@@H]4CCC[C@H](NC(=O)c5cc6cc(CP(=O)(O)O)ccc6s5)C(=O)N43)C2)C1` [Compound 680, ((2-(((3S,6S,9aS)-3-(3-(4-(3-cyanoazetidin-1-yl)pyridin-3-yl)azetidine-1-carbonyl)-5-oxooctahydro-1H-pyrrolo[1,2-a]azepin-6-yl)carbamoyl)benzo [b]thiophen-5-yl)methyl) phosphonic acid], the IC50 [1] is reported as less than 0.1 µM and the IC50 [2] is reported as 3 to 30 µM.
Work on `O=C(N[C@H]1CCC[C@H]2CC[C@@H](C(=O)N3CC(c4cncnc4N4CCC4)C3)N2C1=O)c1cc2cc(CP(=O)(O)O)ccc2s1` [Compound 681, ((2-(((3S,6S,9aS)-3-(3-(4-(azetidin-1-yl)pyrimidin-5-yl)azetidine-1-carbonyl)-5-oxooctahydro-1H-pyrrolo[1,2-a]azepin-6-yl)carbamoyl)benzo [b]thiophen-5-yl)methyl) phosphonic acid] yielded an IC50 [1] of less than 0.1 µM and an IC50 [2] of 3 to 30 µM.
`COc1c(Cl)cncc1C1CN(C(=O)[C@@H]2CC[C@@H]3CCC[C@H](NC(=O)c4cc5cc(C(F)P(=O)(O)O)ccc5s4)C(=O)N32)C1` (stereo partly drawn) [Compound 682, ((2-(((3S,6S,9aS)-3-(3-(5-chloro-4-methoxypyridin-3-yl)azetidine-1-carbonyl)-5-oxooctahydro-1H-pyrrolo[1,2-a]azepin-6-yl)carbamoyl)benzo [b]thiophen-5-yl)fluoromethyl) phosphonic acid] gave an IC50 [1] of 0.1 to 1 µM and an IC50 [2] of 3 to 30 µM.
